Where two headings read alike, the source gives them in different places.
Assays:
[1] = system: large panel of ligand binding assays, ion channel assays, transporter assays, and enzyme inhibition studies; assay: Secondary pharmacology studies (ligand binding, ion channel, transporter, enzyme inhibition panel)
Protocol: I-1 plasma concentrations are projected to have reached at least 10 μM, exceeding reported levels of RASP in humans with inflammatory diseases. The data support the potential of I-1, and RASP inhibition in general, in treating inflammation and fibrosis.

[2] = First-in-human Phase 1 trial (SAD/MAD), safety; assay type: in vivo
Protocol: The adverse event profile was favorable compared to placebo: A total of 6 (9.4%) subjects receiving the test compound had treatment emergent adverse events, compared to 4 (19.1%) subjects who received placebo. […] No changes in serum glucose were observed. […] There were no subjects who had QTcF >500 msec or a change of >60 msec from baseline. […] Three of these five subjects were in the SAD portion of the study (one each in the 100 mg, 200 mg, and 700 mg dose cohorts) and the remaining two subjects were in the MAD portion of the study (one each in the 150 mg BID and 300 mg BID dose cohorts).
Clinical development of compound I-1 in inflammatory disease is supported by safety testing in human healthy volunteers in single and multiple ascending dose (10 day), placebo-controlled Phase I trials.

[3] = Phase 1 trial, pharmacokinetics in healthy volunteers; assay type: in vivo, human; conditions: for Cmax / AUC / half-life: human, in vivo; for AUC: read-out: 0 to 12 hour area under the curve (AUCtau)
Protocol: Healthy volunteers were dosed with 600 mg of compound I-1 BID for 10 days in the top (highest) dose cohort. […] The 0 to 12 hour area under the curve (AUCtau) was 5710 h*ng/mL (61.5% CV) on Day 1 and 6,800 h*ng/mL (37.9% CV) on Day 10.

[4] = system: free MDA; assay: Phase 1 trial, plasma biomarkers in healthy volunteers; assay type: in vivo, human; conditions: vs placebo
[5] = system: rat NAFLD model; assay: 12-week choline deficient high fat diet rat study (NAFLD model); assay type: in vivo; conditions: for NAS score: 7 week group
Text: NAFLD is diagnosed in the US as 3 million new cases each year. NASH is included in the NAFLD diagnosis, as it is the easiest to ascertain in a subject. NAFLD activity score (NAS) is scored as 0-2 not diagnostic, 3-4 ranges from not diagnostic/borderline/positive NASH, and 5-8 diagnostic of NASH; the NAS scoring system includes a composite of […] semi-quantitative features: steatosis (0-3), lobular inflammation (0-2), hepatocellular ballooning (0-2), and fibrosis (0-4). To analyze the effect of compound I-1 on NAFLD, NAS was analyzed in rats treated with vehicle or various doses of compound I-1 (100 mg/kg, 125 mg/kg was compared to escalation 30/60/100 mg/kg and 50/75/100 mg/kg BID, respectively in animals fed a choline deficient, high fat diet for 7 weeks (vehicle vs. 100 mg/kg vs 30/60/100 mg/kg) and 12 weeks (vehicle vs. 125 mg/kg vs 50/75/100 mg/kg). Plasma was collected at 1, 2, 3, 6, 8, 10, and 12 weeks and tested for cytokines and ALT, AST, Triglycerides, Cholesterol, and tBilirubin (measures of liver function). At 12 weeks the livers were collected and gene expression studies, immunohistochemistry, and hydroxyproline.

[6] = system: rat NAFLD model; assay: as above; assay type: in vivo; conditions: 11 Week Groups (Day 84)
[7] = after high-fat meal on Day 10, 600 mg BID
[8] = plasma, 7 week and 12 week groups, vs vehicle

## CC(C)(O)c1nc2ccccc2cc1N [I-1]
[1]
  risk of off-target effects: low risk of off-target effects
[2]; Phase 1 SAD and MAD (10 day), up to 600 mg BID
  overall safety and tolerability: safe and tolerable
[2]; SAD 100, 200, 700 mg, MAD 150 mg BID, 300 mg BID cohorts
  subjects with QTcF change of >30 msec from baseline: Five
[2]; in vivo
  QTcF prolongation: did not lead to QTcF prolongation
  changes in heart rate, blood pressure, respiratory rate, pulse oximetry, or temperature: No clinically meaningful changes
  changes in hepatic or renal analytes (ALT, AST, ALP, amylase, GGT, bilirubin, creatinine kinase, creatinine): No clinically meaningful changes
  changes in serum glucose: No changes
  hematological changes: No clinically significant hematological changes
  interruptions or discontinuations of study drug administration: no interruptions or discontinuations
  subjects with QTcF >500 msec or a change of >60 msec from baseline: no subjects
[2]; subjects receiving the test compound, number (%)
  subjects with treatment emergent adverse events: 6 (9.4%) subjects
[3]; across all cohorts
  accumulation of the drug: Little to no accumulation
[3]; as dose increased
  correlation of Cmax and AUC with dose: linear correlation
[3]; between Day 1 and Day 10
  increase in clearance: no significant increase in clearance
[3]; 600 mg, 600 mg BID, Day 1
  Cmax: 1920 ng/mL
  AUC: 5710 ng·h/mL
[3]; 600 mg, 600 mg BID, Day 1, read-out: half-life (converted)
  half-life: 3.98 h
[3]; 600 mg, 600 mg BID, Day 10
  Cmax: 1460 ng/mL
  AUC: 6800 ng·h/mL
[3]; 600 mg, 600 mg BID, Day 10, read-out: half-life (converted)
  half-life: 4.56 h
[3]; multiple day exposures, across cohorts, read-out: half-life (t1/2), mean values
  half-life: 3.07 to 6.2 h
[3]; over the course of 10 days
  cyp autoinduction: no cyp autoinduction was observed
[4]; 600 mg BID over 10 days
  free MDA levels in plasma: decrease in free MDA levels was observed
[4]; [7]
  levels of HDL: statistically higher
  levels of free fatty acids: statistically lower
[5]; 7 week and 12 week groups
  liver fibrosis (picrosirius red histopathology): trended to have reduced
  liver inflammation (hematoxylin eosin histopathology): trended to have reduced
[5]; 100 mg/kg, vs vehicle
  NAS score: statistical significant reduction
[5]; 30/60/100 mg/kg escalation
  NAS score: reduced
[5]; 12 week group, vs vehicle
  MCP expression levels: remained similar to vehicle
  MIP expression levels: reduction
  Rantes expression levels: remained similar to vehicle
[5]; [8]
  cholesterol: trended at lower values than vehicle
  triglycerides: trended at lower values than vehicle
[6]
  NAS scores: lower
